We go through eleven compounds from patent publication US20050244891A1, “Ligand-containing micelles and uses thereof” (Applera Corporation, priority 2003, published 2005).

The conditions of data set [1]: normalized: phenylalanine 100, glycine 0; cited from earlier work.
The conditions of data set [2]: cited from earlier work.
The test system of another data set is Akt. In words: Fluorescence of micelle with signal molecule upon treatment with protein kinase (Table 19). It is filed as biochemical. The settings on record: Conc 8 uM. The source says:
(§1) Table 19 also provides the specific protein kinase that can be used to modify each of these signal molecules, as well as the fluorescence observed with a micelle comprising the signal molecules upon treatment with the specified protein kinase.

For another data set, the system named is PKA. The description is as above. The settings on record: Conc 8 uM; for RFUs at 10 uL (final): after kinase; for RFUs at 10 uL (initial): before kinase. Format: biochemical.
From the text: as §1

Another data set relates to PKC. Described as above. Format: biochemical. As to conditions: for RFUs at 10 uL (final): after kinase; for RFUs at 10 uL (initial): before kinase.
From the text: as §1

In a further data set the test system is MAPK. Described as above. It is filed as biochemical. As to conditions: Conc 16 uM.
From the text: as §1

A further data set deals with Src, lyn, fyn. The description is as above. It is filed as biochemical. The settings on record: Conc 8 uM.
From the text: as §1

For a further data set, the target named is MAPKAP2 (Homo sapiens, UniProt P49137). The data set is described as above. It is filed as biochemical. The settings on record: Conc 8 uM.
MAPKAP2, sequence (P49137 whole entry): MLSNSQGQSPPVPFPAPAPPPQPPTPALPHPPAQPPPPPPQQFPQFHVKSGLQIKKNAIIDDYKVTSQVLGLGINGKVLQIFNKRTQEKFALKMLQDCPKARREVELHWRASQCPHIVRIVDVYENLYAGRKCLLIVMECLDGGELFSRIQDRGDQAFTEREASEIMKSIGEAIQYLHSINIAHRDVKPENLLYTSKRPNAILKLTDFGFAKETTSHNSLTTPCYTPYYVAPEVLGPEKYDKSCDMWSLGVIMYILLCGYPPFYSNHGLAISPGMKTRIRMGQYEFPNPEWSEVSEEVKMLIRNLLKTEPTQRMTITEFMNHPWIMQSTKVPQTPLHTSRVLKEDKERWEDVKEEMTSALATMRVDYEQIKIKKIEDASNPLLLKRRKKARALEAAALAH
From the text: as §1

The star is where a group is joined. K(dye2) = lysine labeled with dye2 = 5-carboxy-2′,7′-dipyridyl-sulfonefluorescein; K(tet) = lysine labeled with tet = 2′,7′,4,7-tetrachloro-5-carboxy fluorescein; Heptadecanoyl = CCCCCCCCCCCCCCCCC(=O)*; Pentadecanoyl = CCCCCCCCCCCCCCC(=O)*; Palmitoyl = CCCCCCCCCCCCCCCC(=O)*; Tridecanoyl = CCCCCCCCCCCCC(=O)*; AEEA = NCCOCCOCC(=O)O

With `O=C(O)[C@@H]1CCCN1` [Proline (P), Proline], the “Monera et al. Hydrophobicity (pH 2)” value in data set [1] is given as −46.

In the case of `C[C@@H](O)[C@H](N)C(=O)O` [Threonine (T), Threonine], the “Side chain pKa” value in data set [2] is “˜13”.

As for “C15-OOOK(dye2)RPRTSSF-NH2: peptide-dye signal molecule for Akt; dye2 = 5-carboxy-2′,7′-dipyridyl-sulfonefluorescein ({Pentadecanoyl-AEEA-AEEA-AEEA-K(dye2)}-RPRTSSF-NH2)”, the Fold increase with Akt was 4x. Further, the “RFUs at 10 uL (final)” value in the data set with Akt (after kinase) was found to be 7500 RFU. Also, the “RFUs at 10 uL (initial)” value with Akt (before kinase) amounted to 1500 RFU.

`N[C@@H](CO)C(=O)O` [Serine (S), Serine]: the “Side chain pKa” value in data set [2] was “˜13”.

With “C13-K(dye2)-LRRASLG-NH2: peptide-dye signal molecule for PKA; dye2 = 5-carboxy-2′,7′-dipyridyl-sulfonefluorescein, C-terminus amidated ({Tridecanoyl-K(dye2)}-LRRASLG-NH2)”, in the data set on PKA, the Fold increase is 5x, the “RFUs at 10 uL (final)” value is 5000 RFU and the “RFUs at 10 uL (initial)” value stood at 1000 RFU.

“C17-OOOK(tet)-RQGSFRA-NH2: peptide-dye signal molecule for PKC; tet = 2′,7′,4,7-tetachloro-5-carboxy fluorescein ({Heptadecanoyl-AEEA-AEEA-AEEA-K(tet)}-RQGSFRA-NH2)”: in the data set with PKC (Conc 6 uM), the Fold increase is given as 7x, the “RFUs at 10 uL (final)” value was 4900 RFU and the “RFUs at 10 uL (initial)” value came out at 700 RFU.

Regarding “C17-OOOK(dye2)PRTPGGR-NH2: peptide-dye signal molecule for MAPK; dye2 = 5-carboxy-2′,7′-dipyridyl-sulfonefluorescein ({Heptadecanoyl-AEEA-AEEA-AEEA-K(dye2)}-PRTPGGR-NH2)”, in the data set on MAPK, the Fold increase is given as 5x. For the same compound, the “RFUs at 10 uL (final)” value in the data set on MAPK (after kinase) was found to be 5700 RFU. The “RFUs at 10 uL (initial)” value in the data set with MAPK (before kinase) was determined as 1100 RFU.

In the data set on Src, lyn, fyn, “C16-OOOK(dye2)RIGEGTYGVVRR-NH2: peptide-dye signal molecule for Src, lyn, fyn; dye2 = 5-carboxy-2′,7′-dipyridyl-sulfonefluorescein ({Palmitoyl-AEEA-AEEA-AEEA-K(dye2)}-RIGEGTYGVVRR-NH2)” had a Fold increase of 6.5x. For the same compound, in the data set with Src, lyn, fyn (after kinase), the “RFUs at 10 uL (final)” value was 6500 RFU. In addition, the “RFUs at 10 uL (initial)” value in the data set on Src, lyn, fyn (before kinase) was found to be 1000 RFU.

In the data set with MAPKAP2, “C16-OOOK(dye2)RLNRTLSV-NH2: peptide-dye signal molecule for MAPKAP2; dye2 = 5-carboxy-2′,7′-dipyridyl-sulfonefluorescein ({Palmitoyl-AEEA-AEEA-AEEA-K(dye2)}-RLNRTLSV-NH2)” showed a Fold increase of 4x. In addition, the “RFUs at 10 uL (final)” value with MAPKAP2 (after kinase) is reported as 3200 RFU. For the same compound, in the data set with MAPKAP2 (before kinase), the “RFUs at 10 uL (initial)” value is 800 RFU.

For the compound “C13-OOOK(dye2)-LRRASLG-NH2: peptide-dye signal molecule for PKA; O = 2-aminoethoxy-2-ethoxyacetyl linker, dye2 = 5-carboxy-2′,7′-dipyridyl-sulfonefluorescein ({Tridecanoyl-AEEA-AEEA-AEEA-K(dye2)}-LRRASLG-NH2)”, in the data set on PKA, the Fold increase worked out at 5x, the “RFUs at 10 uL (final)” value is reported as 5000 RFU and the “RFUs at 10 uL (initial)” value amounted to 1000 RFU.

As for “C16-OOOK(dye2)-RREGSFR-NH2: peptide-dye signal molecule for PKC; O = 2-aminoethoxy-2-ethoxyacetyl linker, dye2 = 5-carboxy-2′,7′-dipyridyl-sulfonefluorescein ({Palmitoyl-AEEA-AEEA-AEEA-K(dye2)}-RREGSFR-NH2)”, in the data set on PKC (Conc 4 uM), the Fold increase is 4.5x, the “RFUs at 10 uL (final)” value was 3000 RFU and the “RFUs at 10 uL (initial)” value was 650 RFU.
